Data: PMC5544777, “Kinetics and thermodynamics of the protein-ligand interactions in the riboflavin kinase activity of the FAD synthetase from Corynebacterium ammoniagenes” (Scientific Reports, 2017)
Where “and” joins values, the source holds several entries; their conditions need not be identical. Equal entries are not always repeated. Where two headings read alike, the source gives them in different places.

Experiments:
RFK module of CaFADS [1] = molecular target: T1, RFK module of CaFADS (Corynebacterium ammoniagenes, UniProt Q59263, L183M); test: Isothermal titration calorimetry of binary and ternary interactions; format: binding; conditions: for Kd: read-out: Kd
T1 construct: a truncated CaFADS variant consisting in the isolated C-terminal RFK module; made in house; host or cells: E. coli BL21(DE3)
Protocol: Isothermal titration calorimetry (ITC) experiments were performed to elucidate the order in which ligands bind to the enzyme, as well as the binding inhibition effects from the thermodynamic point of view. Experiments were carried out in an AutoITC200 (MicroCal) that was thermostated at 25 °C. […] Titrations with FLV ligands of mixtures that contained the enzyme prebound with the ANP ligand were also carried out, as well as ANP titrations of mixtures of the enzyme saturated with FLV ligands. In these experiments, the titration was performed by stepwise injecting the titrating ligand. Up to 19 injections of 2 μL each were added to the calorimetric sample cell and mixed at a stirring speed of 1000 r.p.m. Ligands and protein were dissolved in 20 mM PIPES, pH 7.0, either in the presence or absence of 0.8 mM MgCl2, and degassed prior to titration. The association constant (K a), the enthalpy change (ΔH) and the binding stoichiometry (N) were obtained through a nonlinear least squares regression of the data using a homemade model for one or two independent binding sites, which was implemented in Origin 7.0 (OriginLab) as previously described, [20]. The entropic contribution (-TΔS), the Gibbs free energy (ΔG) and the dissociation constant (K d) were obtained through essential thermodynamic equations.
Experiments were performed in triplicate.

RFK module of CaFADS [2] = molecular target: T1, RFK module of CaFADS; test: Steady-state RFK activity (HPLC quantification of flavins); format: biochemical
Protocol: In all cases, reactions were initiated by addition of the enzyme to a final concentration of ≈40 nM, which was followed by 1 min of incubation, and the reactions were stopped by boiling the samples at 100 °C for 5 min as previously described, [20]. The flavin composition of the supernatant was analyzed using an Alliance HPLC system (Waters) equipped with a 2707 autosampler and an HSST3 column (4.6 × 50 mm, […]; Waters) preceded by a precolumn (4.6 × 20 mm, […]; Waters) as previously described, [20]. […] All the experiments were carried out in triplicate.
Additionally, Dixon plots (1/(v 0/[e]) vs [I]) and Cornish-Bowden representations ([S]/(v 0/[e]) vs [I]) were used to reveal the type of inhibition, [43].

[3] = initial mixture RFK:FMN, 0.0 mM MgCl2
[4] = initial mixture RFK:FMN, 0.8 mM MgCl2
[5] = initial mixture RFK:RF, 0.0 mM MgCl2
[6] = initial mixture RFK:RF, 0.8 mM MgCl2
[7] = initial mixture RFK, 0.0 mM MgCl2
[8] = initial mixture RFK, 0.8 mM MgCl2
[9] = apparent, ATP varied, ~5 µM RF, [ADP] 20 μM
[10] = apparent, ATP varied, ~5 µM RF, [ADP] 50 μM
[11] = apparent, ATP varied, ~5 µM RF, [ADP] 90 μM
[12] = apparent, ATP varied, ~5 µM RF, [ADP] 170 μM

T1 sequence (Q59263 183-338 L183M): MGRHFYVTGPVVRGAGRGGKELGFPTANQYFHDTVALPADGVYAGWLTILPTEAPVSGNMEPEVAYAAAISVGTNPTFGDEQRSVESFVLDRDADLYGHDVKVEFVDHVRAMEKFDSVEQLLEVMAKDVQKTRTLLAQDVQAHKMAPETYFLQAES

## Nc1ncnc2c1ncn2[C@@H]1O[C@H](COP(=O)(O)OP(=O)(O)O)[C@@H](O)[C@H]1O [ADP]
RFK module of CaFADS [1]; [3]
  -TΔS: 9.3 kcal/mol
  ΔG: -6.6 kcal/mol
  ΔH: -15.9 kcal/mol
  Kd: 14.8 µM
RFK module of CaFADS [1]; [4]
  -TΔS: 1.8 kcal/mol
  ΔG: -8.5 kcal/mol
  ΔH: -10.3 kcal/mol
  Kd: 0.6 µM
RFK module of CaFADS [1]; [5]
  -TΔS: 25.4 kcal/mol
  ΔG: -6.5 kcal/mol
  ΔH: -31.8 kcal/mol
  Kd: 17.1 µM
RFK module of CaFADS [1]; [6]
  -TΔS: 5.2 kcal/mol
  ΔG: -8.2 kcal/mol
  ΔH: -13.4 kcal/mol
  Kd: 1 µM
RFK module of CaFADS [1]; [7]
  -TΔS: 0.6 kcal/mol
  ΔG: -5.8 kcal/mol
  ΔH: -6.4 kcal/mol
RFK module of CaFADS [1]; initial mixture RFK, 0.0 mM MgCl2, 20 mM PIPES, pH 7.0, 25 °C
  Kd: 51.4 µM
RFK module of CaFADS [1]; [8]
  -TΔS: 3.5 kcal/mol
  ΔG: -6.4 kcal/mol
  ΔH: -9.8 kcal/mol
RFK module of CaFADS [1]; initial mixture RFK, 0.8 mM MgCl2, 20 mM PIPES, pH 7.0, 25 °C
  Kd: 22.1 µM
RFK module of CaFADS [2]; Dixon, Cornish-Bowden and Lineweaver-Burk plots
  type of inhibition of the RFK activity: competitive inhibitor
RFK module of CaFADS [2]; global fit of Lineweaver-Burk equation, competitive inhibition, ~5 µM RF, read-out: KiADP
  Ki: 17 ± 3.3 µM
RFK module of CaFADS [2]; product inhibitor potency, KmRF/KiFMN and KmATP/KiADP
  K m/K i ratio: ≈ 2.4

## Nc1ncnc2c1ncn2[C@@H]1O[C@H](COP(=O)(O)OP(=O)(O)OP(=O)(O)O)[C@@H](O)[C@H]1O [ATP]
RFK module of CaFADS [1]; [3]
  -TΔS: 9.3 kcal/mol
  ΔH: -17.9 kcal/mol
RFK module of CaFADS [1]; [4]
  -TΔS: 9.3 kcal/mol
  ΔH: -19.5 kcal/mol
RFK module of CaFADS [1]; [5]
  -TΔS: 66.6 kcal/mol
  ΔH: -72.5 kcal/mol
RFK module of CaFADS [1]; [7]
  -TΔS: -1.0 kcal/mol
  ΔH: -5.5 kcal/mol
RFK module of CaFADS [1]; [8]
  -TΔS: -0.6 kcal/mol
  ΔG: -6.1 kcal/mol
  ΔH: -5.6 kcal/mol
RFK module of CaFADS [2]; apparent, ATP varied, ~5 µM RF, [ADP] 0 μM, 25 °C, 0.8 mM MgCl2, pH 7.0
  KmATP: 60 ± 11 µM
RFK module of CaFADS [2]; apparent, ATP varied, ~5 µM RF, [ADP] 0 μM, 25 °C, 20 mM PIPES, 0.8 mM MgCl2, pH 7.0
  k cat: 2.67 ± 0.167 s⁻¹
RFK module of CaFADS [2]; [9]
  KmATP: 110 ± 20 µM
  k cat: 2.67 ± 0.167 s⁻¹
RFK module of CaFADS [2]; [10]
  KmATP: 140 ± 20 µM
  k cat: 2.33 ± 0.167 s⁻¹
RFK module of CaFADS [2]; [11]
  KmATP: 260 ± 20 µM
  k cat: 2.83 ± 0.167 s⁻¹
RFK module of CaFADS [2]; [12]
  KmATP: 700 ± 270 µM
  k cat: 2.83 ± 1 s⁻¹
RFK module of CaFADS [2]; global fit of Lineweaver-Burk equation, competitive inhibition by ADP, ATP varied, ~5 µM RF
  k cat: 2.17 ± 0.5 s⁻¹
RFK module of CaFADS [2]; global fit of Lineweaver-Burk equation, competitive inhibition by ADP, ~5 µM RF
  KmATP: 40 ± 20 µM and 40 ± 12 µM
